Measured values taken from PubChem BioAssay (NCI).
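Five concentrations, 48 hours, 96-well plates. Here, GI50 denotes the concentration required for 50% inhibition of growth. TGI marks complete inhibition of growth.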

Tests used:
Experiment in all cases: DTP human tumour cell line panel, 48 h
[1] = test system: MOLT-4 leukemia
[2] = test system: SK-MEL-5 melanoma
[3] = test system: CAKI-1 renal
[4] = test system: SF-295 CNS
[5] = test system: 786-0 renal
[6] = test system: NCI-H226 lung
[7] = test system: U251 CNS
[8] = test system: OVCAR-8 ovarian
[9] = test system: A498 renal
[10] = test system: OVCAR-4 ovarian

Row | Compound | GI50 [1] [nM] | TGI [1] [µM] | GI50 [2] [nM] | TGI [2] [µM] | GI50 [3] [nM] | TGI [3] [µM] | GI50 [4] [µM] | TGI [4] [µM] | GI50 [5] [nM] | TGI [5] [µM] | GI50 [6] [µM] | TGI [6] [µM] | GI50 [7] [µM] | TGI [7] [µM] | GI50 [8] [µM] | TGI [8] [µM] | GI50 [9] [nM] | TGI [9] [µM] | GI50 [10] [nM] | TGI [10] [µM]
1 | C[CH2][Sn]([CH2]C)([O]C(=O)c1cc(OC)c(OC)c(OC)c1)[O][Sn]([CH2]C)([CH2]C)[O]C(=O)c1cc(OC)c(OC)c(OC)c1 | 25800 | > 85.8 | 74400 | > 100 | 15700 | 29.8 | 76.5 | > 100 | 27400 | > 59.8 | 27.3 | 57.9 | 18.2 | 33.1 | > 42.8 | > 62.4 | 25600 | 43.9 | > 100000 | > 100
2 | CC1=C(C(=O)Nc2cc(F)c(F)cc2F)C(c2cccc([N+](=O)[O-])c2)C(C(=O)Nc2ccccc2C(F)(F)F)=C(C)N1 (centres undefined) |  | 42 |  | 63.9 |  | 49.6 |  | 48.8 |  | 40.3 |  | 74.7 |  | 53.1 |  | 77.7 |  | 45 |  | 66.1
3 | O=C(/C=C/c1cccnc1)/C=C/c1cccnc1 | 310 |  | 2060 | 4.7 | 4280 | 26.6 | 3.73 | 13.1 | 2100 | 6.03 | 5.1 | 15.7 | 0.547 | 1.78 | 3.56 | 12.8 | 1940 | 4.66 | 2000 | 4.52
4 | COc1ccc(Nc2nc3c(N)cc(C(F)(F)F)cc3nc2-c2ccccc2)cc1 |  | > 100 |  | > 100 |  | > 100 |  | > 100 |  | > 100 |  | > 100 |  | > 100 |  | > 100 |  | > 100 |  | > 100
5 | COc1ccc2c(c1)CC[C@@H]1C2CC[C@]2(C)C(=O)N(C)C(=O)CC12 (some centres undefined) |  | > 100 |  | > 100 |  | > 100 |  | > 100 |  | > 100 |  | > 100 |  | > 100 |  | > 100 |  | > 100 |  | > 100
6 | Cc1ccc(S(=O)(=O)OC(C=O)C(O)C(O)COC(c2ccccc2)(c2ccccc2)c2ccccc2)cc1 (centres undefined) |  | 46.5 |  | 28.9 |  | 36.6 |  | 24.8 |  | 27.3 |  | 29.4 |  | 27.9 |  | 26.5 |  | 32.6 |  | 32.8
7 | COc1cc(-c2cn(-c3ccc(Cl)cc3)c(=O)n2-c2ccccc2)cc(OC)c1OC | 59600 | > 100 | 25300 | > 100 | > 100000 | > 100 | 55.7 | > 100 | > 83100 | > 100 | 82.1 | > 100 | 33.7 | > 100 | 40.8 | > 100 | 18700 | > 92.4 | 21400 | > 90.7
8 | CCN=C(N)CSS(=O)(=O)O |  | > 100 |  | > 100 |  | > 100 |  | > 100 |  | > 100 |  | > 100 |  | > 100 |  | > 100 |  | > 100 |  | > 100
9 | c1ccc(CNc2nc(Nc3ccc(-c4nc5ccccc5[nH]4)cc3)c3cn[nH]c3n2)cc1 | 2430 | 6.33 | 1740 | 3.3 | 2130 | 5.47 | 1.7 | 3.84 | 1770 | 3.73 | 2.98 | 8.43 | 2.27 | 5.85 | 2.57 | 6.73 | 2930 | 8.22 | 2280 | 7.14
10 | O=C1/C(=C\c2ccccc2)CN(C(=O)c2ccccc2F)C/C1=C\c1ccccc1 | 2930 | 8.51 | 1700 | 3.23 | 3400 | 12.8 | 2.24 | 5.77 | 1850 | 3.56 | 5.6 | 21.5 | 1.68 | 3.26 | 2.67 | 7.9 | 2630 | 13.2 | 3040 | 11.2
11 | C/C(=N\NC(=S)Nc1ccccc1)c1ccccn1 | < 27.8 | 16.9 | 199 | 1.56 | 185 | 8.74 | 0.109 | 10.7 | 277 | 1.99 | 0.217 | 2.13 | 0.0366 | 2.39 | < 0.0169 | 2.54 | 207 | 1.64 | 36.2 | 1.78
12 | CCOC(=O)/C(=C/c1c(-c2ccccc2)[nH]c2ccccc12)C(=O)c1ccc(Cl)cc1 | 2570 | 8.21 | 1780 | 4.1 | 4120 | > 100 | 4.2 | > 100 | 3750 | > 100 | 5.6 | > 100 | 3.85 | > 100 | 5.75 | > 100 | 8810 | > 100 | 4820 | > 100
13 | COc1cccc(C2C3=C(COC3=O)N(CCO)c3cc4c(cc32)CCC4)c1 (centres undefined) | 162 | 1.94 | 20.4 | 0.436 | 132 | > 50 | 0.0148 | 0.543 | 73.1 | 10.8 | 0.274 | > 27.8 | 0.143 | 11.5 | 0.098 | > 17.1 | 15.4 | 0.0483 | 114 | > 50
14 | CC1C2CC(CC2=O)C1(C)C (centres undefined) |  | > 100 |  | > 100 |  | > 100 |  | > 100 |  | > 100 |  | > 100 |  | > 100 |  | > 100 |  | > 100 |  | > 100
15 | COc1ccc(C2=NN(c3ccc(S(N)(=O)=O)cc3)C(c3ccc(Cl)cc3)C2)c(O)c1 (centres undefined) | 1920 | 5.07 | 6240 | 19.1 | 2670 | 8.64 | 3.1 | 14.5 | 2220 | 5.15 | 5.6 | 19.3 | 4.47 | 21.2 | 4.74 | 44.4 | 3890 | 14.5 | 4510 | 37.5
16 | CCN1N=CSC12C(=O)N(c1ccccc1)C(=O)N2c1ccccc1 (centres undefined) |  | > 100 |  | > 100 |  | > 100 |  | > 100 |  | > 100 |  | > 100 |  | > 100 |  | > 100 |  | > 100 |  | > 100
17 | CC(=O)C(CN1CCOCC1)C(c1ccccc1)c1c(O)c2ccccc2oc1=O (centres undefined) |  | > 100 |  | > 100 |  | > 100 |  | > 100 |  | > 100 |  | > 100 |  | > 100 |  | > 100 |  | > 100 |  | > 100
18 | CCN1C(=O)N(CC)C2C1NN=c1s/c(=C\c3ccc([N+](=O)[O-])cc3)c(=O)n12 (centres undefined) | 577 | > 100 | 343 | 12.1 | 395 | > 46.4 | 0.371 | > 52.2 | 621 | > 100 | 2.16 | > 71 | 0.506 | > 100 | 0.885 | > 91.1 | 172 | 0.704 | 744 | 10.5
19 | Cn1c(=O)c2c(nc3n2C(CCl)CO3)n(C)c1=O (centres undefined) |  | > 100 |  | > 100 |  | > 100 |  | > 100 |  | > 100 |  | > 100 |  | > 100 |  | > 100 |  | > 100 |  | > 100
20 | Cc1ccc2c(c1)/C(=N\N=C/c1cn(C(C)C)c3ccccc13)C(=O)N2 | 252 | 0.753 | 4570 | > 100 | 2600 | > 100 | > 100 | > 100 | 18600 | > 100 | 2.67 | > 100 | 3.9 | > 100 | 4.7 | > 100 | 1600 | > 100 | 277 | > 100
21 | C#CCSc1nnnn1-c1ccc(Br)c(C)c1 | 23300 | > 100 | 16500 | 33.9 | 2820 | 17.6 | 29.5 | > 100 | 54900 | > 100 | 26.4 | > 100 | 12 | > 100 | 20.3 | > 100 | 18900 | 81.1 | 31100 | > 100
22 | CC1(C)OCC(C2OC(On3nnc4ccc(Cl)cc43)C3OC(C)(C)OC23)O1 (centres undefined) |  | > 100 |  | > 100 |  | > 100 |  | > 100 |  | > 100 |  | > 100 |  | > 100 |  | > 100 |  | > 100 |  | > 100
23 | Cc1cc(N(CCC#N)CCC#N)ccc1N=Nc1ccc([N+](=O)[O-])cc1 |  | > 100 |  | > 10 |  | > 100 |  | > 100 |  | > 100 |  | > 100 |  | 36.1 |  | 56.9 |  | > 100 |  | 44.1
